Results: US11261177B2, “Benzoxazinone derivatives useful as herbicides” (REDAG CROP PROTECTION LTD, priority 2017, dated 2022)

Experiments:
Format in all cases: in vivo
[1] = system: Stellaria media—Chickweed; assay: Pre-emergence herbicidal assay, 96 cell trays, glasshouse; details: 168 h, assessed 7 days after treatment, read-out: % control of plant growth; for pest or weed control at 200 g/ha: 0.2 kg/ha; for pest or weed control at 1000 g/ha: 1 kg/ha; for pest or weed control at 5000 g/ha: 5 kg/ha
Experimental: (§1) The compounds were screened at three concentrations (0.2, 1 and 5 kg/ha) against 2 weed species (Stellaria media—Chickweed and Lolium perenne). The seeds were sown in the cells of 96 cell trays (4-6 seeds per cell). For the pre-emergence assay, 75 μL of a suspension of the test compound, at the above doses, was added on top of the soil 1 day after sowing. For the post-emergence assay, the seedlings were sprayed with 200 μL of a suspension of the test compound two weeks after sowing. The formulation used is 25% acetone and 75% water/0.01% Tween 20. Each treatment was replicated three times. The plants were kept in a glasshouse (uncontrolled conditions) and assessed 7 days after treatment. A small number of compounds were tested in a first trial. A larger number of compounds were tested in a second trial. The assessment was based on the % control of plant growth in each cell.

[2] = system: Lolium perenne; assay: as above; details: 168 h, Lollium, assessed 7 days after treatment, read-out: % control of plant growth; for pest or weed control at 200 g/ha: 0.2 kg/ha; for pest or weed control at 1000 g/ha: 1 kg/ha; for pest or weed control at 5000 g/ha: 5 kg/ha
Experimental: as §1

[3] = system: Stellaria media—Chickweed; assay: Post-emergence herbicidal assay, 96 cell trays, glasshouse; details: 168 h, assessed 7 days after treatment, read-out: % control of plant growth; for pest or weed control at 200 g/ha: 0.2 kg/ha; for pest or weed control at 1000 g/ha: 1 kg/ha; for pest or weed control at 5000 g/ha: 5 kg/ha
Experimental: as §1

[4] = system: Lolium perenne; assay: as above; details: 168 h, Lollium, assessed 7 days after treatment, read-out: % control of plant growth; for pest or weed control at 200 g/ha: 0.2 kg/ha; for pest or weed control at 1000 g/ha: 1 kg/ha; for pest or weed control at 5000 g/ha: 5 kg/ha
Experimental: as §1

Structure (SMILES)	pest or weed control at 1000 g/ha ([1]; second trial (Table 2)) [%]	pest or weed control at 5000 g/ha ([1]; second trial (Table 2)) [%]	pest or weed control at 1000 g/ha ([2]; second trial (Table 2)) [%]	pest or weed control at 5000 g/ha ([2]; second trial (Table 2)) [%]	pest or weed control at 200 g/ha ([3]; second trial (Table 2)) [%]	pest or weed control at 1000 g/ha ([3]; second trial (Table 2)) [%]	pest or weed control at 5000 g/ha ([3]; second trial (Table 2)) [%]	pest or weed control at 200 g/ha ([4]; second trial (Table 2)) [%]	pest or weed control at 1000 g/ha ([4]; second trial (Table 2)) [%]	pest or weed control at 5000 g/ha ([4]; second trial (Table 2)) [%]	other results
C#CCN1C(=O)C2(CC2)Oc2cc(F)c(-n3c(=O)n(C)c(=S)n(C)c3=O)cc21 [Comparative Example, 3-(7-Fluoro-3-oxo-4-(prop-2-yn-1-yl)-3,4-dihydrospiro[benzo[b][1,4]oxazine-2,1′-cyclopropan]-6-yl)-1,5-dimethyl-6-thioxo-1,3,5-triazinane-2,4-dione, reference compound]	80 to 100	80 to 100	20 to 80	80 to 100	20 to 80	80 to 100	80 to 100	20 to 80	20 to 80	80 to 100	pest or weed control at 200 g/ha ([1]; first trial (Table 1)): < 20%; pest or weed control at 1000 g/ha ([1]; first trial (Table 1)): < 20%; pest or weed control at 5000 g/ha ([1]; first trial (Table 1)): < 20%; pest or weed control at 200 g/ha ([1]; second trial (Table 2)): 20 to 80%; pest or weed control at 200 g/ha ([2]; first trial (Table 1)): < 20%; pest or weed control at 1000 g/ha ([2]; first trial (Table 1)): 20 to 80%; pest or weed control at 5000 g/ha ([2]; first trial (Table 1)): 80 to 100%; pest or weed control at 200 g/ha ([2]; second trial (Table 2)): < 20%; pest or weed control at 200 g/ha ([3]; first trial (Table 1)): < 20%; pest or weed control at 1000 g/ha ([3]; first trial (Table 1)): 20 to 80%; pest or weed control at 5000 g/ha ([3]; first trial (Table 1)): 20 to 80%; pest or weed control at 200 g/ha ([4]; first trial (Table 1)): 20 to 80%; pest or weed control at 1000 g/ha ([4]; first trial (Table 1)): 20 to 80%; pest or weed control at 5000 g/ha ([4]; first trial (Table 1)): 80 to 100%
C#CCN1C(=O)C2(CC2)Oc2cc(F)c(N3C(=O)C4=C(CCCC4)C3=O)cc21 [Example 1, 2-(7-Fluoro-3-oxo-4-(prop-2-yn-1-yl)-3,4-dihydrospiro[benzo[b][1,4]oxazine-2,1′-cyclopropan]-6-yl)-4,5,6,7-tetrahydro-1H-isoindole-1,3(2H)-dione]	80 to 100	80 to 100	20 to 80	80 to 100	80 to 100	80 to 100	80 to 100	20 to 80	80 to 100	80 to 100	pest or weed control at 200 g/ha ([1]; first trial (Table 1)): < 20%; pest or weed control at 1000 g/ha ([1]; first trial (Table 1)): < 20%; pest or weed control at 5000 g/ha ([1]; first trial (Table 1)): < 20%; pest or weed control at 200 g/ha ([1]; second trial (Table 2)): 20 to 80%; pest or weed control at 200 g/ha ([2]; first trial (Table 1)): 20 to 80%; pest or weed control at 1000 g/ha ([2]; first trial (Table 1)): 20 to 80%; pest or weed control at 5000 g/ha ([2]; first trial (Table 1)): 20 to 80%; pest or weed control at 200 g/ha ([2]; second trial (Table 2)): 20 to 80%; pest or weed control at 200 g/ha ([3]; first trial (Table 1)): < 20%; pest or weed control at 1000 g/ha ([3]; first trial (Table 1)): 20 to 80%; pest or weed control at 5000 g/ha ([3]; first trial (Table 1)): 20 to 80%; pest or weed control at 200 g/ha ([4]; first trial (Table 1)): < 20%; pest or weed control at 1000 g/ha ([4]; first trial (Table 1)): 20 to 80%; pest or weed control at 5000 g/ha ([4]; first trial (Table 1)): 80 to 100%
C#CCN1C(=O)C2(CC2)Oc2cc(F)c(N3C(=O)C(=O)N(CCC)C3=S)cc21 [Example 2, 1-(7-Fluoro-3-oxo-4-(prop-2-yn-1-yl)-3,4-dihydrospiro[benzo[b][1,4]oxazine-2,1′-cyclopropan]-6-yl)-3-propyl-2-thioxoimidazolidine-4,5-dione]	20 to 80	20 to 80	< 20	< 20	20 to 80	20 to 80	20 to 80	< 20	< 20	< 20	pest or weed control at 200 g/ha ([1]; first trial (Table 1)): 20 to 80%; pest or weed control at 1000 g/ha ([1]; first trial (Table 1)): 20 to 80%; pest or weed control at 5000 g/ha ([1]; first trial (Table 1)): 20 to 80%; pest or weed control at 200 g/ha ([1]; second trial (Table 2)): 20 to 80%; pest or weed control at 200 g/ha ([2]; first trial (Table 1)): < 20%; pest or weed control at 1000 g/ha ([2]; first trial (Table 1)): < 20%; pest or weed control at 5000 g/ha ([2]; first trial (Table 1)): < 20%; pest or weed control at 200 g/ha ([2]; second trial (Table 2)): < 20%; pest or weed control at 200 g/ha ([3]; first trial (Table 1)): 20 to 80%; pest or weed control at 1000 g/ha ([3]; first trial (Table 1)): 20 to 80%; pest or weed control at 5000 g/ha ([3]; first trial (Table 1)): 20 to 80%; pest or weed control at 200 g/ha ([4]; first trial (Table 1)): < 20%; pest or weed control at 1000 g/ha ([4]; first trial (Table 1)): < 20%; pest or weed control at 5000 g/ha ([4]; first trial (Table 1)): < 20%
C#CCN1C(=O)C2(CC2)Oc2cc(F)c(-n3nc(C(C)(C)C)oc3=O)cc21 [Example 3, 6-(5-(tert-Butyl)-2-oxo-1,3,4-oxadiazol-3(2H)-yl)-7-fluoro-4-(prop-2-yn-1-yl)spiro[benzo[b][1,4]oxazine-2,1′-cyclopropan]-3(4H)-one]	–	–	–	–	–	–	–	–	–	–	pest or weed control at 200 g/ha ([1]; first trial (Table 1)): 20 to 80%; pest or weed control at 1000 g/ha ([1]; first trial (Table 1)): 80 to 100%; pest or weed control at 5000 g/ha ([1]; first trial (Table 1)): 80 to 100%; pest or weed control at 200 g/ha ([2]; first trial (Table 1)): < 20%; pest or weed control at 1000 g/ha ([2]; first trial (Table 1)): 20 to 80%; pest or weed control at 5000 g/ha ([2]; first trial (Table 1)): 80 to 100%; pest or weed control at 200 g/ha ([3]; first trial (Table 1)): 20 to 80%; pest or weed control at 1000 g/ha ([3]; first trial (Table 1)): 20 to 80%; pest or weed control at 5000 g/ha ([3]; first trial (Table 1)): 20 to 80%; pest or weed control at 200 g/ha ([4]; first trial (Table 1)): 20 to 80%; pest or weed control at 1000 g/ha ([4]; first trial (Table 1)): 80 to 100%; pest or weed control at 5000 g/ha ([4]; first trial (Table 1)): 80 to 100%
C#CCN1C(=O)C2(CC2)Oc2cc(F)c(N3C(=O)c4ccc(F)cc4C3=O)cc21 [Example 5]	80 to 100	80 to 100	20 to 80	80 to 100	80 to 100	80 to 100	80 to 100	20 to 80	20 to 80	80 to 100	–
C#CCN1C(=O)C2(CC2)Oc2cc(F)c(N3C(=O)c4cccc(F)c4C3=O)cc21 [Example 6]	20 to 80	80 to 100	< 20	20 to 80	20 to 80	80 to 100	80 to 100	20 to 80	80 to 100	80 to 100	pest or weed control at 200 g/ha ([1]; second trial (Table 2)): 20 to 80%; pest or weed control at 200 g/ha ([2]; second trial (Table 2)): < 20%
O=C1N(CC2CC2)c2cc(/N=c3\sc(=O)n4n3CCCC4)c(F)cc2OC12CC2 [Example 37]	–	–	–	–	80 to 100	80 to 100	80 to 100	20 to 80	20 to 80	80 to 100	–
COC(=O)C(C)N1C(=O)C2(CC2)Oc2cc(F)c(/N=c3\sc(=O)n4n3CCCC4)cc21 (stereo not shown) [Example 38]	–	–	–	–	80 to 100	80 to 100	80 to 100	20 to 80	20 to 80	80 to 100	–
C#CCN1C(=O)C2(CC2)Oc2cc(F)c(N3C(=O)C4COCCN4C3=O)cc21 (stereo not shown) [Example 45, 2-(7-Fluoro-3-oxo-4-(prop-2-yn-1-yl)-3,4-dihydrospiro[benzo[b][1,4]oxazine-2,1′-cyclopropan]-6-yl)tetrahydro-1H-imidazo[5,1-c][1,4]oxazine-1,3(2H)-dione]	–	–	–	–	80 to 100	80 to 100	80 to 100	80 to 100	80 to 100	80 to 100	–
O=C1C2CC(O)CN2C(=O)N1c1cc2c(cc1F)OC1(CC1)C(=O)N2CC1CC1 (stereo not shown) [Example 46]	–	–	–	–	< 20	< 20	< 20	< 20	< 20	< 20	–
O=C1C2COCCN2C(=O)N1c1cc2c(cc1F)OC1(CC1)C(=O)N2CC1CC1 (stereo not shown) [Example 48]	–	–	–	–	80 to 100	80 to 100	80 to 100	< 20	< 20	20 to 80	–
COC(=O)C(C)N1C(=O)C2(CC2)Oc2cc(F)c(N3C(=O)C4COCCN4C3=O)cc21 (stereo not shown) [Example 49]	–	–	–	–	80 to 100	80 to 100	80 to 100	< 20	< 20	< 20	–
N#CCN1C(=O)C2(CC2)Oc2cc(F)c(N3C(=O)C4COCCN4C3=O)cc21 (stereo not shown) [Example 50]	–	–	–	–	80 to 100	80 to 100	80 to 100	< 20	< 20	< 20	–
CC(C)=CCN1C(=O)C2(CC2)Oc2cc(F)c(N3C(=O)C4COCCN4C3=O)cc21 (stereo not shown) [Example 51]	–	–	–	–	80 to 100	80 to 100	80 to 100	< 20	< 20	< 20	–
O=C1C2CCCN2C(=O)N1c1cc2c(cc1F)OC1(CC1)C(=O)N2CC1CC1 (stereo not shown) [Example 52]	–	–	–	–	80 to 100	80 to 100	80 to 100	< 20	20 to 80	20 to 80	–
